Reference: patent US20250304623A1, “PEPTIDES FOR INTRACELLULAR DELIVERY” (UNIVERSIDADE DE SANTIAGO DE COMPOSTELA, priority 2022, published 2025)

What was measured:
Type in all cases: cell-based
HCT116 cells = experiment: EGFP mRNA delivery, robotic library screening, HCT116
Protocol: (§1) Cells were seeded in a 96 well plate the day before the experiment at a concentration of 50,000 cell/mL (100 μL/w) in DMEM+10% FBS+1% Gln-Abt. For robotic library screening, the delivery of EGFP-mRNA (from TriLink, fully substituted with 5-methoxyuridine, capped and polyadenylated; TriLink, CleanCap® EGFP mRNA (5moU), ref. L-7201) in six different cell lines was performed. Amphiphilic molecule stock solutions were prepared in DMSO as described above and diluted in DMEM to afford a range of concentrations. The solutions of EGFP-mRNA/amphiphilic molecule complexes were freshly prepared prior to the transfection experiments. 35 μL of the corresponding amphiphile were added to 10 μL of a solution of EGFP-mRNA at 10 ng/μL in DMEM. The mixture was shaken for 30 min at room temperature before the addition to the cells. The cell medium was aspirated, and cells were washed with PBS twice. Cells were covered with 39 μL of DMEM and 11 μL of the complex's solution were added to the cells and incubated for 4 h (final concentration of peptide=2.5, 5 and 10 μM; final concentration of EGFP-mRNA=25 ng/well). After the incubation, the medium was replaced by 100 μL of fresh DMEM supplemented with 10% FBS. The total EGFP fluorescence was quantified after 72 h in a well plate reader. Amphiphile transfection efficiency was compared and normalized to Lipofectamine® MessengerMax efficiency (value of 1 in Tables 1-5 and 7; double underlined numbers). All experiments were done in triplicate.
(§2) Tables 1-7: RLuc (pDNA) or EGFP (mRNA) expression levels were normalized to Lipofectamine reagents (value=1) and expressed as fold-times signal increase. In the case of siRNA, the siRNA treated cells fluorescence was compared with siMOCK control fluorescence, while Cas9-RNP mediated knockout was measured against the fluorescence of untreated cells. In both siRNA and Cas9-RNP, values are expressed as % fluorescence reduction. Amphiphile concentration was 5 μM in all cases. All experiments were performed in triplicate.
(§3) Tables 14-19 show the mean (triplicates) fluorescence intensity measured after the transfection of EGFP mRNA by different amphiphiles at different concentrations in a variety of cell lines. Background fluorescence values, accounted by untreated control cells, were subtracted for processing.

A549 cells = experiment: EGFP mRNA delivery, robotic library screening, A549
Protocol: as §1, §2, §3

[1] = test system: Hek293 cells expressing EGFP; experiment: Cas9-RNP delivery against EGFP (gene editing, plate reader), Hek293
Protocol: To generate an EGFP expressing HeLa cell line, HeLa cells were transfected with EGFP pDNA (pEGFP-C1, Clontech) and stable transfectants were selected with 400 μg/mL of G-418 (Millipore). Green clones were selected by epifluorescence microscopy and tested for EGFP expression stability through several passages. […] All other EGFP-expressing cell lines were obtained in a similar way from parent non-EGFP-expressing cell lines.
Cells expressing EGFP were seeded in a 96 well plate the day before the experiment at a concentration of 50,000 cell/mL (100 μL/w) in DMEM+10% FBS+1% Gln-Abt. For robotic library screening, the delivery of Cas9-RNP against EGFP (RNP designed to knock-out the gene encoding for the enhanced green fluorescent protein (EGFP)) was performed. For RNP assembly, 9.2 μL of crRNA and 9.2 μL of tracrRNA were mixed in 211.6 μL of Nuclease-Free Duplex Buffer (IDT), incubated for 5 min at 95° C. and slowly cooled at rt (see I. Lostalé-Seijo, et al. Peptide/Cas9 nanostructures for ribonucleoprotein cell membrane transport and gene edition, Chem. Sci., 2017). Cas9 protein was dissolved in DMEM at a final concentration of 4 μM and equal volumes of the RNA complex and Cas9 were mixed and incubated for 5 min at rt. 75 μL of the corresponding amphiphile concentrations were added to 5 μL of RNP at 2 μM. The mixture was shaken for 30 min at room temperature before the addition to the cells. The cell medium was aspirated, and cells were washed twice with PBS. Cells were covered with 30 μL of DMEM and 20 μL of the RNP/amphiphile complexes were added to the cells (final peptide concentrations=2.5, 5 and 10 μM; final Cas9-RNP concentration=50 nM) and incubated for 4 h. After the incubation, the medium was replaced by 100 μL of fresh DMEM supplemented with 10% FBS. The total EGFP fluorescence was quantified after 72 h in a plate reader (FIG. 2, Table 1 (right) and Table 6). All experiments were done in triplicate. […]
Tables 26-31 show the mean (triplicates) percentage of gene editing, accounted by GFP fluorescence intensity decrease (% of reduction), measured after the transfection of Cas9-RNP by different amphiphiles at different concentrations in a variety of cell lines. Background values, accounted by untreated control cells, were subtracted for processing.

Hek293 cells = experiment: EGFP mRNA delivery, robotic library screening, Hek293
Protocol: as §1, §2, §3

Substance	mean fluorescence intensity (EGFP mRNA) (HCT116 cells; Petroselinyl, 2.5 μM)	mean fluorescence intensity (EGFP mRNA) (HCT116 cells; Petroselinyl, 5 μM)	mean fluorescence intensity (EGFP mRNA) (HCT116 cells; Petroselinyl, 10 μM)	mean fluorescence intensity (EGFP mRNA) (A549 cells; Dodecanal, 2.5 μM)	mean fluorescence intensity (EGFP mRNA) (A549 cells; Myristoleyl, 2.5 μM)	mean fluorescence intensity (EGFP mRNA) (A549 cells; Oleyl, 2.5 μM)	mean fluorescence intensity (EGFP mRNA) (A549 cells; Oleyl, 5 μM)	mean fluorescence intensity (EGFP mRNA) (A549 cells; Oleyl, 10 μM)	mean fluorescence intensity (EGFP mRNA) (A549 cells; Palmitoleyl, 2.5 μM)	mean fluorescence intensity (EGFP mRNA) (A549 cells; Palmitoleyl, 10 μM)	mean fluorescence intensity (EGFP mRNA) (A549 cells; Petroselinyl, 2.5 μM)	mean fluorescence intensity (EGFP mRNA) (A549 cells; Petroselinyl, 5 μM)	mean fluorescence intensity (EGFP mRNA) (A549 cells; Petroselinyl, 10 μM)	percentage of gene editing, GFP fluorescence intensity decrease (% of reduction) ([1]; Dodecanal, 5 μM) [%]	percentage of gene editing, GFP fluorescence intensity decrease (% of reduction) ([1]; Palmitoleyl, 5 μM) [%]	percentage of gene editing, GFP fluorescence intensity decrease (% of reduction) ([1]; Palmitoleyl, 15 μM) [%]	percentage of gene editing, GFP fluorescence intensity decrease (% of reduction) ([1]; Petroselinyl, 5 μM) [%]	percentage of gene editing, GFP fluorescence intensity decrease (% of reduction) ([1]; Petroselinyl, 10 μM) [%]	percentage of gene editing, GFP fluorescence intensity decrease (% of reduction) ([1]; Petroselinyl, 15 μM) [%]	mean fluorescence intensity (EGFP mRNA) (Hek293 cells; Myristoleyl, 2.5 μM)	other results
Ac-RHLK*RHK*RRLK*RH-NH2 (Ac-RHLKRHKRRLKRH-NH2; not fully specified (residues 4, 7, 11); printed as Ac-RHLK*RHK*RRLK*RH-NH2; also: linker on K* not given here) [13(3His)]	563	238	541	622	1558	1063	1233	109	1138	65	2598	1675	1017	−4	−16	−47	21	4	−13	2039	mean fluorescence intensity (EGFP mRNA) (A549 cells; Dodecanal, 5 μM): 945; mean fluorescence intensity (EGFP mRNA) (A549 cells; Dodecanal, 10 μM): 453; mean fluorescence intensity (EGFP mRNA) (A549 cells; Myristoleyl, 5 μM): 1386; mean fluorescence intensity (EGFP mRNA) (A549 cells; Myristoleyl, 10 μM): 696; percentage of gene editing, GFP fluorescence intensity decrease (% of reduction) ([1]; Myristoleyl, 5 μM): −13%; mean fluorescence intensity (EGFP mRNA) (Hek293 cells; Dodecanal, 5 μM): 1878; mean fluorescence intensity (EGFP mRNA) (Hek293 cells; Dodecanal, 10 μM): 1687; mean fluorescence intensity (EGFP mRNA) (Hek293 cells; Myristoleyl, 5 μM): 1952; mean fluorescence intensity (EGFP mRNA) (Hek293 cells; Myristoleyl, 10 μM): 3636; mean fluorescence intensity (EGFP mRNA) (Hek293 cells; Oleyl, 2.5 μM): 2611; mean fluorescence intensity (EGFP mRNA) (Hek293 cells; Oleyl, 5 μM): 735; mean fluorescence intensity (EGFP mRNA) (Hek293 cells; Oleyl, 10 μM): 1303; mean fluorescence intensity (EGFP mRNA) (Hek293 cells; Petroselinyl, 2.5 μM): 3629; mean fluorescence intensity (EGFP mRNA) (Hek293 cells; Petroselinyl, 5 μM): 2394; mean fluorescence intensity (EGFP mRNA) (Hek293 cells; Petroselinyl, 10 μM): 2964
Ac-RHLK*RLK*RRLK*RL-NH2 (Ac-RHLKRLKRRLKRL-NH2; not fully specified (residues 4, 7, 11); printed as Ac-RHLK*RLK*RRLK*RL-NH2; also: linker on K* not given here) [13(Arg-His)]	1065	490	61	626	392	886	719	386	1177	437	652	306	151	21	1	−26	8	−19	−44	2326	mean fluorescence intensity (EGFP mRNA) (HCT116 cells; Myristoleyl, 2.5 μM): 2974; mean fluorescence intensity (EGFP mRNA) (HCT116 cells; Myristoleyl, 5 μM): 4154; mean fluorescence intensity (EGFP mRNA) (HCT116 cells; Myristoleyl, 10 μM): 4744; mean fluorescence intensity (EGFP mRNA) (HCT116 cells; Palmitoleyl, 2.5 μM): 4249; mean fluorescence intensity (EGFP mRNA) (A549 cells; Palmitoleyl, 5 μM): 348; percentage of gene editing, GFP fluorescence intensity decrease (% of reduction) ([1]; Myristoleyl, 15 μM): −75%; percentage of gene editing, GFP fluorescence intensity decrease (% of reduction) ([1]; Oleyl, 10 μM): −8%; percentage of gene editing, GFP fluorescence intensity decrease (% of reduction) ([1]; Oleyl, 15 μM): −8%; percentage of gene editing, GFP fluorescence intensity decrease (% of reduction) ([1]; Palmitoleyl, 10 μM): 5%; mean fluorescence intensity (EGFP mRNA) (Hek293 cells; Oleyl, 2.5 μM): 5005; mean fluorescence intensity (EGFP mRNA) (Hek293 cells; Oleyl, 5 μM): 1571; mean fluorescence intensity (EGFP mRNA) (Hek293 cells; Oleyl, 10 μM): 1231; mean fluorescence intensity (EGFP mRNA) (Hek293 cells; Palmitoleyl, 10 μM): 777; mean fluorescence intensity (EGFP mRNA) (Hek293 cells; Petroselinyl, 2.5 μM): 1436; mean fluorescence intensity (EGFP mRNA) (Hek293 cells; Petroselinyl, 5 μM): 638; mean fluorescence intensity (EGFP mRNA) (Hek293 cells; Petroselinyl, 10 μM): 372
